# Test results taken from patent US5686104A, “Stable oral CI-981 formulation and process of preparing same” (Warner-Lambert Company, priority 1994, dated 1997).
# Counter-ions that a name gives are not always drawn.
# How the values were obtained:
# [1] = tested on: sterol synthesis (rat liver homogenate); conditions: read-out: IC50, concentration required for 50% inhibition of sterol synthesis, one-hour period, data disclosed in U.S. Pat. No. 5,273,995; cited from earlier work
# [2] = Stability of the hydroxy acid compounds in acidic environment, under light, or in wet-granulated compositions (statement); type: physicochemical; conditions: no calcium carbonate
SMILES,IC50 [1] [nM],degradation in compositions prepared by the wet-granulation method [2]
CC(C)c1c(C(=O)Nc2ccccc2)c(-c2ccccc2)c(-c2ccc(F)cc2)n1CC[C@H](O)C[C@H](O)CC(=O)O [[S-(R*R*)] isomer],440,
CC(C)c1c(C(=O)Nc2ccccc2)c(-c2ccccc2)c(-c2ccc(F)cc2)n1CC[C@@H](O)C[C@@H](O)CC(=O)O (relative stereo) [Racemate],45,
"CC(C)c1c(C(=O)Nc2ccccc2)c(-c2ccccc2)c(-c2ccc(F)cc2)n1CC[C@@H](O)C[C@@H](O)CC(=O)O [CI-981 Hemi-Calcium, [R-(R*,R*)]-2-(4-fluorophenyl)-β,δ-dihydroxy-5-(1-methylethyl)-3-phenyl-4-[(phenylamino)carbonyl]-1H-pyrrole-1-heptanoic acid hemicalcium salt]",4.4,degrades rapidly
